Source: EP4817613A1, “COMPOSITION FOR ERADICATING HELICOBACTER PYLORI COMPRISING ZASTAPRAZAN OR PHARMACEUTICALLY ACCEPTABLE SALT THEREOF” (Jeil Pharmaceutical Co., Ltd., priority 2023, dated 2025)

Columns and labels:
[1] = test system: patients with erosive gastroesophageal reflux disease; experiment: Phase 2 clinical trial, randomized, double-blind, active-controlled: healing of mucosal breaks and symptoms; assay type: in vivo, human; conditions: for overall healing rate, number of subjects whose mucosal breaks were completely healed / overall healing rate, proportion of subjects whose mucosal breaks were completely healed: H. pylori-positive and -negative groups together
Experimental: H. pylori testing was performed by 13C-urea breath test (13C-UBT), gastroscopy (Campylobacter-like organism test, CLO), or tissue biopsy to confirm H. pylori positivity/negativity. The testing was performed at the screening visit (Visit 1) or the randomization visit (Visit 2), and results from the same institution within 29 days prior to the randomization visit (Visit 2) could be substituted. This clinical trial was a randomized, double-blind, active-controlled, multicenter, phase 2 clinical trial targeting patients with erosive gastroesophageal reflux disease. After the subjects gave written consent to participate in the clinical trial, a screening test was conducted. When the subjects were taking drugs that could affect the gastric mucosa at the time of screening, an upper gastrointestinal endoscopy was performed after a 2-week drug-free period (a 4-week drug-free period for potassium-competitive acid blockers (P-CABs) or proton pump inhibitors (PPIs)). […] At this time, the subjects were stratified by grade (A, B, C, D) according to the LA classification system classified by upper gastrointestinal endoscopy. Randomly assigned subjects took the clinical trial drug once a day according to the assigned administration group for four weeks. After four weeks of administration of the clinical trial drug, the subjects visited the clinical trial institution to undergo an upper gastrointestinal endoscopy to assess whether they were healed. Healed subjects underwent a Safety Follow-Up (F/U) two weeks later, and unhealed subjects were administered the clinical trial drug for additional four weeks (a total of 8 weeks of administration) and visited the clinical trial institution to undergo an upper gastrointestinal endoscopy. […] Days of achieving complete remission (CR, disappearance of heartburn and acid reflux for seven days) after the administration of the clinical trial drug • D. Proportion of symptom-free days (heartburn, acid reflux, heartburn/acid reflux) for 4 and 8 weeks after the administration of the clinical trial drug (daytime, nighttime, daytime/nighttime) • ③ Changes in frequency and severity of major symptoms at week 4 and week 8 of the clinical trial drug administration compared to the gastroesophageal reflux disease questionnaire (RDQ) baseline • ④ Changes in total score at week 4 and week 8 of the clinical trial drug administration compared to the GERD Health-Related Quality of Life (GERD-HRQL) baseline The proportion of subjects whose erosions recovered to normal mucosa from the first administration of the clinical trial drug up to week 8 and the two-sided 95% confidence intervals were presented by administration group. […] Days of achieving CR (disappearance of heartburn and acid reflux for seven days) after the administration of the clinical trial drug: When the symptom score is 0 for seven consecutive days after the first administration of the clinical trial drug, it was defined as CR (disappearance of heartburn and acid reflux for seven days), and the event was based on the first CR. When there was no CR, the case was considered as censoring.

[2] = test system: patients with erosive gastroesophageal reflux disease; experiment: Phase 3 clinical trial: healing rate of mucosal breaks in H. pylori-positive subjects; assay type: in vivo, human
Experimental: H. pylori testing was performed by 13C-UBT, gastroscopy (Campylobacter-like organism test, CLO), or tissue biopsy to confirm H. pylori positivity/negativity. The testing was performed at the screening visit (Visit 1) or the randomization visit (Visit 2), and results from the same institution within 29 days prior to the randomization visit (Visit 2) could be substituted. Those who voluntarily agreed to participate in this clinical trial underwent a screening test through a screening visit, and only eligible subjects were allowed to participate in the clinical trial based on the inclusion/exclusion criteria. Eligible subjects were randomly assigned to the test group or control group and received the clinical trial drug according to the assigned group at the baseline visit (V2). […] [Table 10] The cumulative healing rate of mucosal breaks according to the presence or absence of H. pylori infection refers to the proportion of subjects whose mucosal breaks were healed by 4 weeks after the administration of the clinical trial drug on endoscopic examination. The frequency and percentage of healing rates of mucosal breaks at week 4 after the administration of the clinical trial drug were presented by administration group according to the presence or absence of H. pylori infection. The differences between the administration groups (test group-control group) were analyzed using the Cochran-Mantel-Haenszel method corrected with the baseline LA classification method as a stratification factor, and the 95% confidence intervals for the differences were presented.

[3] = test system: Helicobacter pylori SS1 (mouse colonizing strain); experiment: Antibiotic susceptibility testing by microdilution (MIC and MBC), CLSI guideline; assay type: cell-based; conditions: lowest concentration with no growth after spotting on antibiotic-free agar, Table 4 prints no unit (method concentrations in µg/mL)
Experimental: Helicobacter pylori SS1 (mouse colonizing strain): A strain known as Sydney strain. The strain is CagA-positive and VacA-positive and has been confirmed to infect and colonize in C57BL/6 mice. The strain is used in animal testing. The medium was prepared using Müller-Hinton broth (MH, Difco Inc., Sparks, MD, USA) [w/7% differentiation medium (Sigma CO., LTD., St. Louis, USA), 0.4% isovitalex (BBL Inc., Sparks, MD, USA)]. An antibiotic susceptibility testing was performed using the microdilution method according to the CLSI guideline. Two-fold serial dilution was performed in 12 steps in a 48-well plate with the highest concentration of 128 µg/mL for amocixillin and clarithromycin and 256 µg/mL for omeprazole. The bacteria were inoculated into wells containing only medium without antibiotics to prepare the positive control group, and the wells containing only medium without antibiotics or inoculated bacteria were used as the negative control group. The concentration range of the test substances, zastaprazan (JP-1366) and fexuprazan, was determined through preliminary experiments. […] The lowest concentration at which no bacterial growth was observed was determined as the MIC. […] The lowest concentration at which no bacteria growth occurred was determined as the MBC. […] All tests were performed in duplicate, and the results were determined by conducting the experiments in triplicate.

| Structure (SMILES) | Healing rate, (%) ([1]; H. pylori-negative group, week 8, 40 mg once a day, N=41) | overall healing rate, number of subjects whose mucosal breaks were completely healed ([1]; week 4, 40 mg once a day, of 49 people) [people] | Number of healed subjects, (%) ([2]; full analysis set (FAS), week 4, 40 mg once a day, 25 subjects) | MBC [3] | Healing rate, (%) ([1]; H. pylori-negative group, week 4, 10 mg once a day, N=41) | Healing rate, (%) ([1]; H. pylori-negative group, week 4, 20 mg once a day, N=42) | Healing rate, (%) ([1]; H. pylori-negative group, week 8, 10 mg once a day, N=41) | Healing rate, (%) ([1]; H. pylori-negative group, week 8, 20 mg once a day, N=42) | overall healing rate, proportion of subjects whose mucosal breaks were completely healed ([1]; week 4, 10 mg once a day, 48 people) [%] | overall healing rate, number of subjects whose mucosal breaks were completely healed ([1]; week 4, 10 mg once a day, of 48 people) [people] | overall healing rate, proportion of subjects whose mucosal breaks were completely healed ([1]; week 4, 20 mg once a day, 47 people) [%] | overall healing rate, number of subjects whose mucosal breaks were completely healed ([1]; week 4, 20 mg once a day, of 47 people) [people] | Healing rate, (%) ([1]; H. pylori-positive group, week 4, 10 mg once a day, N=7) | Healing rate, (%) ([1]; H. pylori-positive group, week 4, 20 mg once a day, N=5, citrate salt) | Healing rate, (%) ([1]; H. pylori-positive group, week 8, 10 mg once a day, N=7) | Healing rate, (%) ([1]; H. pylori-positive group, week 8, 20 mg once a day, N=5, citrate salt) | Number of healed subjects, (%) ([2]; full analysis set (FAS), week 4, 20 mg once a day, 28 subjects) | Number of healed subjects, (%) ([2]; per protocol set (PPS), week 4, 20 mg once a day, 26 subjects) |
| --- | --- | --- | --- | --- | --- | --- | --- | --- | --- | --- | --- | --- | --- | --- | --- | --- | --- | --- |
| COc1ccc2nc([S@@+]([O-])Cc3ncc(C)c(OC)c3C)[nH]c2c1 [Esomeprazole, Esomeprazole magnesium trihydrate, reference compound] | 97.56 | 44 | 80.00 |  |  |  |  |  |  |  |  |  |  |  |  |  |  |  |
| Cc1cccc(C)c1CNc1cc(C(=O)N2CCC2)cn2c(C)c(C)nc12.O=C(O)CC(O)(CC(=O)O)C(=O)O [JP-1366, azetidin-1-yl{8-[(2,6-dimethylbenzyl)amino]-2,3-dimethylimidazo[1,2-a]pyridin-6-yl}methanone citrate salt] |  |  |  | 16~323 | 95.12 | 90.48 | 97.56 | 97.62 | 93.75 | 45 | 91.49 | 43 | 85.71 | 100 | 100.00 | 100 | 96.43 | 100.00 |
